Assay results taken from patent US20250221410A1, “SUBSTITUTED 2-C-AZINES AND SALTS THEREOF, AND USE THEREOF AS HERBICIDAL ACTIVE SUBSTANCES” (BAYER AKTIENGESELLSCHAFT, priority 2022, published 2025).

Experiments:
Format in all cases: in vivo
[1] = system: SETVI: Setaria viridis; experiment: Pre-emergence herbicide efficacy at 1280 g/ha, SETVI; details: visual scoring vs untreated controls
Summary of the method: (§1)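 Seeds sown in sandy loam in pots and covered; compounds as WP or EC applied to covering soil surface as aqueous suspension/emulsion with 0.5% additive at 600 L/ha water. Greenhouse growth ~3 weeks, then visual % efficacy vs untreated controls (100% = plants dead, 0% = like control).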

[2] = system: KCHSC: Kochia scoparia; experiment: Pre-emergence herbicide efficacy at 1280 g/ha, KCHSC; details: visual scoring after about 3 weeks vs untreated controls
Summary of the method: as §1

[3] = system: ALOMY: Alopecurus myosuroides; experiment: Pre-emergence herbicide efficacy at 1280 g/ha, ALOMY; details: visual scoring after about 3 weeks vs untreated controls
Text: (§2) Seeds of mono- and dicotyledonous weed plants were placed in plastic pots in sandy loam soil (doubly sown with one species each of mono- or dicotyledonous weed plants per pot) and covered with soil. The compounds of the invention, formulated in the form of wettable powders (WP) or as emulsion concentrates (EC), were then applied to the surface of the covering soil as aqueous suspension or emulsion with addition of 0.5% additive at a water application rate of 600 litres per hectare (converted). After the treatment, the pots were placed in a greenhouse and kept under good growth conditions for the test plants. After about 3 weeks, the efficacy of the preparations was scored visually in comparison with untreated controls as percentages. For example, 100% activity=the plants have died, 0% activity=like control plants. Tables C1 to C12 below show the effects of selected compounds of the general formula (I) according to Table 1 on various harmful plants and at an application rate corresponding to 1280 g/ha, which were obtained by the trial procedure specified above.

[4] = system: ECHCG: Echinochloa crus-galli; experiment: Post-emergence herbicidal efficacy at 1280 g/ha, ECHCG; details: rated visually after about 3 weeks vs untreated controls, 100% = plants have died, 0% = like control plants
Summary of the method: (§3)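 Weeds grown in sandy loam in the greenhouse were sprayed at the one-leaf stage, 2 to 3 weeks after sowing, with WP or EC formulations in water plus 0.5% additive at 600 L/ha. Damage was scored visually about 3 weeks later against untreated controls (0% = like control, 100% = plants dead).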

[5] = system: ABUTH: Abutilon theophrasti; experiment: Post-emergence herbicidal efficacy at 1280 g/ha, ABUTH; details: rated visually after about 3 weeks vs untreated controls, 100% = plants have died, 0% = like control plants
Summary of the method: as §3

[6] = system: MATIN: Matricaria inodora; experiment: Pre-emergence herbicide efficacy at 1280 g/ha, MATIN; details: visual scoring after about 3 weeks vs untreated controls
Summary of the method: as §1

[7] = system: STEME: Stellaria media; experiment: Post-emergence herbicidal efficacy at 1280 g/ha, STEME; details: visual rating about 3 weeks after treatment vs untreated controls
Summary of the method: as §3

[8] = system: KCHSC: Kochia scoparia; experiment: Post-emergence herbicidal efficacy at 1280 g/ha, KCHSC; details: visual rating about 3 weeks after treatment vs untreated controls
Summary of the method: as §3

[9] = system: SETVI: Setaria viridis; experiment: Post-emergence herbicidal efficacy at 1280 g/ha, SETVI; details: visual rating about 3 weeks after treatment vs untreated controls
Summary of the method: as §3

[10] = system: ABUTH: Abutilon theophrasti; experiment: Pre-emergence herbicide efficacy at 1280 g/ha, ABUTH; details: visual scoring after about 3 weeks vs untreated controls
Summary of the method: as §1

[11] = system: AMARE: Amaranthus retroflexus; experiment: Pre-emergence herbicide efficacy at 1280 g/ha, AMARE; details: visual scoring after about 3 weeks vs untreated controls
Summary of the method: as §1

[12] = system: VERPE: Veronica persica; experiment: Pre-emergence herbicide efficacy at 1280 g/ha, VERPE; details: visual scoring vs untreated controls
Summary of the method: as §1

[13] = system: STEME: Stellaria media; experiment: Pre-emergence herbicide efficacy at 1280 g/ha, STEME; details: visual scoring vs untreated controls
Summary of the method: as §1

[14] = system: LOLRI: Lolium rigidum; experiment: Pre-emergence herbicide efficacy at 1280 g/ha, LOLRI; details: visual scoring after about 3 weeks vs untreated controls
Text: as §2

[15] = system: DIGSA: Digitaria sanguinalis; experiment: Post-emergence herbicidal efficacy at 1280 g/ha, DIGSA; details: rated visually after about 3 weeks vs untreated controls, 100% = plants have died, 0% = like control plants
Summary of the method: as §3

[16] = system: DIGSA: Digitaria sanguinalis; experiment: Pre-emergence herbicide efficacy at 1280 g/ha, DIGSA; details: visual scoring after about 3 weeks vs untreated controls
Summary of the method: as §1

[17] = system: POAAN: Poa annua; experiment: Pre-emergence herbicide efficacy at 1280 g/ha, POAAN; details: visual scoring after about 3 weeks vs untreated controls
Summary of the method: as §1

[18] = system: ECHCG: Echinochloa crus-galli; experiment: Pre-emergence herbicide efficacy at 1280 g/ha, ECHCG; details: visual scoring after about 3 weeks vs untreated controls
Summary of the method: as §1

[19] = system: AMARE: Amaranthus retroflexus; experiment: Post-emergence herbicidal efficacy at 1280 g/ha, AMARE; details: rated visually after about 3 weeks vs untreated controls, 100% = plants have died, 0% = like control plants
Summary of the method: as §3

[20] = system: VERPE: Veronica persica; experiment: Post-emergence herbicidal efficacy at 1280 g/ha, VERPE; details: visual rating about 3 weeks after treatment vs untreated controls
Summary of the method: as §3

[21] = system: POAAN: Poa annua; experiment: Post-emergence herbicidal efficacy at 1280 g/ha, POAAN; details: visual rating about 3 weeks after treatment vs untreated controls
Summary of the method: as §3

[22] = system: AMARE: Amaranthus retroflexus; experiment: Pre-emergence herbicide efficacy at 80 g/ha, AMARE; details: scored visually after about 3 weeks
Text: (§4) Seeds of monocotyledonous and dicotyledonous weed plants and crop plants were placed in plastic or organic planting pots and covered with soil. The compounds of the invention, formulated in the form of wettable powders (WP) or as emulsion concentrates (EC), were then applied to the surface of the covering soil as aqueous suspension or emulsion with addition of 0.5% additive at a water application rate equivalent to 600 l/ha. After the treatment, the pots were placed in a greenhouse and kept under good growth conditions for the test plants. After about 3 weeks, the efficacy of the preparations was scored visually in comparison with untreated controls as percentages. For example, 100% activity=the plants have died, 0% activity=like control plants. Tables D1 to D12 below show the effects of selected compounds of the general formula (I) according to Table 1 on various harmful plants and an application rate corresponding to 80 g/ha, which were obtained by the experimental procedure mentioned above.

[23] = system: VIOTR: Viola tricolor; experiment: Post-emergence herbicidal efficacy at 80 g/ha, VIOTR; details: visual rating about 3 weeks after treatment vs untreated controls
Procedure: (§5) Seeds of monocotyledonous and dicotyledonous weeds and crop plants were placed in sandy loam in plastic or organic planting pots, covered with soil and cultivated in a greenhouse under controlled growth conditions. 2 to 3 weeks after sowing, the test plants were treated at the one-leaf stage. The compounds of the invention, formulated in the form of wettable powders (WP) or as emulsion concentrates (EC), were then sprayed onto the green parts of the plants as aqueous suspension or emulsion with addition of 0.5% additive at a water application rate of 600 l/ha (converted). After the test plants had been kept in the greenhouse under optimum growth conditions for about 3 weeks, the activity of the preparations was rated visually in comparison to untreated controls. For example, 100% activity=the plants have died, 0% activity=like control plants. Tables B1 to B10 below show the effects of selected compounds of the general formula (I) according to Table 1 on various harmful plants and an application rate corresponding to 80 g/ha, which were obtained by the experimental procedure mentioned above.

[24] = system: AMARE: Amaranthus retroflexus; experiment: Post-emergence herbicidal efficacy at 80 g/ha, AMARE; details: visual rating about 3 weeks after treatment vs untreated controls
Summary of the method: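 Activity is a visual score relative to untreated plants, taken about 3 weeks after treatment, where 100% means plant death and 0% means no difference from control. Weeds in sandy loam were sprayed at the one-leaf stage with an aqueous WP or EC preparation carrying 0.5% additive at 600 l/ha.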

[25] = system: ABUTH: Abutilon theophrasti; experiment: Pre-emergence herbicide efficacy at 80 g/ha, ABUTH; details: scored visually after about 3 weeks
Text: as §4

[26] = system: VERPE: Veronica persica; experiment: Post-emergence herbicidal efficacy at 80 g/ha, VERPE; details: visual rating about 3 weeks after treatment vs untreated controls
Procedure: as §5

[27] = system: ALOMY: Alopecurus myosuroides; experiment: Post-emergence herbicidal efficacy at 1280 g/ha, ALOMY; details: rated visually after about 3 weeks vs untreated controls, 100% = plants have died, 0% = like control plants
Procedure: Seeds of mono- and dicotyledonous weed plants were placed in plastic pots in sandy loam soil (doubly sown with in each case one species of mono- or dicotyledonous weed plants per pot), covered with soil and cultivated in a greenhouse under controlled growth conditions. 2 to 3 weeks after sowing, the test plants were treated at the one-leaf stage. The compounds of the invention, formulated in the form of wettable powders (WP) or as emulsion concentrates (EC), were applied to the green parts of the plants as aqueous suspension or emulsion with addition of 0.5% additive at a water application rate equivalent to 600 litres per hectare. After the test plants had been kept in the greenhouse under optimum growth conditions for about 3 weeks, the activity of the preparations was rated visually in comparison to untreated controls. For example, 100% activity=the plants have died, 0% activity=like control plants. Tables A1 to A12 below show the effects of selected compounds of the general formula (I) according to Table 1 on various harmful plants and at an application rate corresponding to 1280 g/ha, which were obtained by the trial procedure specified above.

SMILES | Pre-emergence efficacy against SETVI in % [1] | Pre-emergence efficacy against KCHSC [2] | Pre-emergence efficacy against ALOMY [3] | Post-emergence efficacy at 1280 g/ha against ECHCG in % [4] | Post-emergence efficacy at 1280 g/ha against ABUTH in % [5] | Pre-emergence efficacy against MATIN [6] | Post-emergence efficacy against STEME [7] | Post-emergence efficacy against KCHSC [8] | Post-emergence efficacy against SETVI [9] | Pre-emergence efficacy against ABUTH [10] | Pre-emergence efficacy against AMARE [11] | Pre-emergence efficacy against VERPE in % [12] | Pre-emergence efficacy against STEME in % [13] | Pre-emergence efficacy against LOLRI [14] | Post-emergence efficacy at 1280 g/ha against DIGSA in % [15] | Pre-emergence efficacy against DIGSA [16] | Pre-emergence efficacy against POAAN [17] | Post-emergence efficacy at 1280 g/ha against AMARE in % [19] | Post-emergence efficacy against VERPE [20] | Post-emergence efficacy against POAAN [21] | also measured
Clc1cnc(Cc2c(Br)cccc2Oc2ncc(Cl)cn2)nc1 [Example 1-53] | 100% | 100% | 100% | 100% | 100% | 100% | 100% | 100% | 100% | 100% | 100% | 100% | 100% | 100% | 90% | 100% | 100% | 100% | 100% | 100% | Pre-emergence efficacy against ECHCG [18]: 100%
Fc1cnc(Oc2cccc(Cl)c2Cc2ncc(Cl)cn2)nc1 [Example 1-57] | 100% | 100% | 100% | 90% | 90% | 100% | 90% | 90% | 90% | 100% | 100% | 100% | 100% | 100% | 90% | 100% | 100% | 90% | 90% | 90% | Pre-emergence efficacy against ECHCG [18]: 100%
Fc1ccc(Oc2ccccc2Cc2ncc(F)cn2)cc1 [Example 1-67] |  |  |  |  |  |  |  |  |  |  |  |  |  |  |  |  |  |  |  |  | Pre-emergence efficacy against AMARE in % [22]: 90%; Post-emergence efficacy against VIOTR [23]: 100%; Post-emergence efficacy against AMARE [24]: 100%; Pre-emergence efficacy against ABUTH in % [25]: 100%; Post-emergence efficacy against VERPE [26]: 80%
Fc1cc(Cl)cnc1Cc1ccccc1-n1cc(C(F)(F)F)cn1 [Example 1-130] | 90% |  |  | 90% | 100% |  | 100% | 100% | 90% | 100% | 100% | 90% |  |  |  |  | 90% | 100% | 100% | 100% | Post-emergence efficacy at 1280 g/ha against ALOMY in % [27]: 90%
